Experimental data reported in ChEMBL document CHEMBL5233269, “Anticancer potential of spirocompounds in medicinal chemistry: A pentennial expedition” (Eur J Med Chem, 2021).
Converted amounts (≈) assume the structure as drawn.

Experiments:
[1] = tested on: CT26; test: Anticancer activity against mouse CT26 cells at 50 ug/ml measured after 24 hrs relative to control; format: functional; conditions: dose 50 µg/ml
[2] = tested on: UO-31; test: Anticancer activity against human UO-31 cells assessed as reduction in cell proliferation; format: functional, cell-based
[3] = tested on: PC-3; test: Anticancer activity against human PC-3 cells assessed as reduction in cell proliferation; format: functional, cell-based
[4] = tested on: A549; test: Anticancer activity against human A549 cells assessed as reduction in cell proliferation; format: functional, cell-based
[5] = tested on: HOP-92; test: Anticancer activity against human HOP-92 cells assessed as reduction in cell proliferation; format: functional, cell-based
[6] = tested on: MCF7; test: Anticancer activity against human MCF7 cells assessed as inhibition of cell growth; format: functional, cell-based
[7] = tested on: HCT-116; test: Anticancer activity against human HCT-116 cells; format: functional, cell-based
[8] = tested on: HepG2; test: Anticancer activity against human HepG2 cells assessed as inhibition of cell growth; format: functional, cell-based
[9] = tested on: PC-3; test: Anticancer activity against human PC-3 cells; format: functional, cell-based
[10] = tested on: K562; test: Anticancer activity against human K562 cells; format: functional, cell-based
[11] = tested on: A549; test: Anticancer activity against human A549 cells; format: functional, cell-based
[12] = tested on: Jurkat; test: Cytotoxicity against human Jurkat cells; format: functional, cell-based
[13] = tested on: MCF7; test: Cytotoxicity against human MCF7 cells assessed as lethal dose; format: functional; conditions: read-out: LD50 (the source's name)
[14] = tested on: HeLa; test: Anticancer activity against human HeLa cells measured after 48 hrs by Sulforhodamine B assay; format: functional, cell-based
[15] = tested on: MCF7; test: Anticancer activity against human MCF7 cells measured after 48 hrs by Sulforhodamine B assay; format: functional, cell-based; conditions: MCF7, 48 h
[16] = tested on: HCT-116; test: Anticancer activity against human HCT-116 cells measured after 48 hrs by Sulforhodamine B assay; format: functional, cell-based; conditions: HCT-116, 48 h
[17] = tested on: T47D; test: Anticancer activity against human T47D cells measured after 48 hrs by Sulforhodamine B assay; format: functional, cell-based
[18] = tested on: HepG2; test: Anticancer activity against human HepG2 cells measured after 48 hrs by Sulforhodamine B assay; format: functional, cell-based; conditions: HepG2, 48 h
[19] = tested on: MDA-MB-231; test: Antiproliferative activity against human MDA-MB-231 cells assessed as reduction in tumor cell proliferation; format: functional, cell-based
[20] = tested on: HepG2; test: Cytotoxicity against human HepG2 cells incubated overnight by MTT assay; format: functional, cell-based
[21] = tested on: HCT-116; test: Cytotoxicity against human HCT-116 cells incubated overnight by MTT assay; format: functional, cell-based
[22] = tested on: MCF7; test: Cytotoxicity against human MCF7 cells incubated overnight by MTT assay; format: functional, cell-based
[23] = tested on: KB; test: Anticancer activity against human KB cells assessed as inhibition of cell proliferation; format: functional, cell-based
[24] = tested on: MCF7; test: Anticancer activity against human MCF7 cells assessed as inhibition of cell proliferation; format: functional, cell-based
[25] = tested on: FaDu; test: Anticancer activity against human FaDu cells; format: functional, cell-based
[26] = tested on: HCT-116; test: Anticancer activity against human HCT-116 cells measured after 72 hrs by SRB assay; format: functional, cell-based; conditions: HCT-116, 72 h
[27] = tested on: Mahlavu; test: Anticancer activity against human Mahlavu cells measured after 72 hrs by SRB assay; format: functional, cell-based
[28] = tested on: MCF7; test: Anticancer activity against human MCF7 cells measured after 72 hrs by SRB assay; format: functional, cell-based; conditions: MCF7, 72 h
[29] = tested on: Huh-7; test: Anticancer activity against human Huh-7 cells measured after 72 hrs by SRB assay; format: functional, cell-based; conditions: Huh-7, 72 h
[30] = tested on: MDA-MB-231; test: Antiproliferative activity against human MDA-MB-231 cells by MTT assay; format: functional, cell-based
[31] = tested on: MDA-MB-231; test: Antiproliferative activity against human MDA-MB-231 cells assessed as inhibition of cell viability by MTT assay; format: functional, cell-based
[32] = tested on: PC-3; test: Antiproliferative activity against human PC-3 cells assessed as inhibition of cell viability by MTT assay; format: functional, cell-based
[33] = tested on: DU-145; test: Antiproliferative activity against human DU-145 cells assessed as inhibition of cell viability by MTT assay; format: functional, cell-based
[34] = tested on: MCF7; test: Antiproliferative activity against human MCF7 cells by MTT assay; format: functional, cell-based

Which Activity [1] does the source give for CCOC(=O)[C@@H]1N[C@@](CC(=O)OC)(C(=O)OC)C2(C(=O)N(C(=O)OC(C)(C)C)c3ccccc32)[C@H]1c1ccc([N+](=O)[O-])cc1 (some centres undefined) here?
Its Activity is 58.89%.

What does the source list for Cc1ccc(/C=C2\CN(C)C[C@]3(C2=O)[C@H](c2ccc(C)cc2)CN(C)[C@]32C(=O)N(CN3CCOCC3)c3ccccc32)cc1?
IC50 [2]: 1.77 µM; IC50 [3]: 0.831 µM; IC50 [4]: 3.59 µM; IC50 [5]: 1.4 µM

What does the source list for O=C1Nc2ccccc2C12CC(c1cn(S(=O)(=O)c3ccc(Cl)cc3)c3ccccc13)=NN2 (centres undefined)?
IC50 [6]: 5.8 µg/mL (≈ 12.2 µM); IC50 [7]: 20.5 µg/mL (≈ 43 µM); IC50 [8]: 19.2 µg/mL (≈ 40.3 µM)

What does the source list for CCN(CC)C[C@@]1([C@H]2c3ccccc3[C@@H](O)[C@]23C(=O)N(Cc2ccccc2)c2ccccc23)C(=O)N(Cc2ccccc2)c2ccccc21?
IC50 [9]: 17.7 µM; IC50 [10]: 7.4 µM; IC50 [11]: 18.1 µM

For O=C(/C=C1\CC(=O)N(c2ccc(Cl)cc2)C1=O)Nc1ccc(Cl)cc1, which IC50 [12] is on record?
Its IC50 is 33.5 µM.

For COC1=C(Br)[C@@H](O)[C@]2(C=C1Br)CC(C(=O)NCC(O)c1cc(Br)c(OCCCNC(=O)C3=NO[C@]4(C=C(Br)C(OC)=C(Br)[C@@H]4O)C3)c(Br)c1)=NO2 (some centres undefined), which CC50 [13] is on record?
Its CC50 is 17 µg/mL (≈ 15.5 µM).

What does the source list for CN1C/C(=C\c2ccc(F)cc2)C(=O)[C@@]2(C1)[C@H](c1ccc(F)cc1)CN(C)[C@]21C(=O)Nc2ccc(Cl)cc21?
IC50 [14]: 2.75 µM; IC50 [15]: 2.98 µM; IC50 [16]: 2.74 µM; IC50 [17]: 3.1 µM; IC50 [18]: 3.08 µM

O=C1N(C2CCCCC2)C(=O)C2(CC(c3ccccc3O)=NCCN2)N1C1CCCCC1 (centres undefined) was tested. Which IC50 [19] did it give?
Its IC50 is 44.6 µM.

For O=C(/C=C/c1ccc(Br)cc1)[C@H]1[C@H](c2ccc(Br)cc2)C2CSCN2[C@]12C(=O)Nc1cc(Br)c(Br)cc12 (some centres undefined), which IC50 [20] is on record?
Its IC50 is 50 µM.

What about the IC50 [21] of the same molecule?
Its IC50 is 2.2 µM.

And the IC50 [22]?
Its IC50 is 2.5 µM.

How did the IC50 [23] turn out when O=C1NC(=O)C2(Cc3ccccc3N3CCSCC32)C(=O)N1 (centres undefined) was run?
Its IC50 is 49.8 µM.

What about the IC50 [24] of the same molecule?
The IC50 was 90.2 µM.

Which results are given for COc1ccc2c(c1)[C@]1(C(=O)N2)N(C)C[C@@H](c2ccc(F)cc2)[C@@]12CN(C)C/C(=C\c1ccc(F)cc1)C2=O?
IC50 [14]: 2.88 µM; IC50 [15]: 3.1 µM; IC50 [16]: 2.86 µM; IC50 [17]: 2.98 µM; IC50 [18]: 3.08 µM

For O=C1/C(=C/c2ccccc2)CN(/C=C/c2ccccc2)C[C@@]12[C@H](c1ccccc1)[C@@H](Cc1ccccc1)N[C@]21C(=O)Nc2ccccc21, which IC50 [25] is on record?
The IC50 was 19 µM.

CCNC(=O)[C@H]1[C@H](c2ccc([N+](=O)[O-])cc2)[C@@]2(C(=O)Cc3ccccc32)[C@H](CC(C)C)N1[C@H](c1ccccc1)[C@@H](O)c1ccccc1 was tested. Which IC50 [26] did it give?
Its IC50 is 3.9 µM.

What about the IC50 [27] of the same molecule?
Its IC50 is 14.9 µM.

What about the IC50 [28] of the same molecule?
The IC50 was 4.8 µM.

And the IC50 [29]?
Its IC50 is 8.2 µM.

How did the IC50 [30] turn out when N#CC1=C(c2ccccc2)Nc2c(c(-c3cccs3)nn2-c2ccccc2)C12C(=O)Nc1ccccc12 (centres undefined) was run?
Its IC50 is 6.7 µM.

How did the IC50 [31] turn out when Clc1ccc(C2=NO[C@@]3(CCCCO3)[C@H]2Br)cc1 was run?
The IC50 was 53.1 µM.

And the IC50 [32]?
The IC50 was 56.7 µM.

What about the IC50 [33] of the same molecule?
The IC50 was 48.1 µM.

What about the IC50 [34] of the same molecule?
The IC50 was 51.2 µM.
